In this assay the target is full-length recombinant human NEK7 (Homo sapiens (Human), UniProt Q8TDX7). Description: NEK7 Enzymatic Assay. It is filed as biochemical. Conditions: casein substrate, [33P]-ATP, 2 hours at room temperature. As for the experimental part:
Casein substrate (from bovine milk, hydrolyzed and partially dephosphorylated mixture of α, β and κ caseins, obtained from Sigma Aldrich, catalogue #C4765, diluted in distilled water to a final concentration of 1 mg/mL) and full-length recombinant human NEK7 (expressed by baculovirus in Sf9 insect cells using a N-terminal GST tag, obtained from SignalChem, catalogue #N09-10G, 0.1 μg/μL) were mixed in assay buffer (20 mM HEPES pH 7.5, 10 mM MgCl2, 1 mM EGTA, 0.02% Brij35, 0.02 mg/mL BSA, 0.1 mM Na3VO4, 2 mM DTT, 1% DMSO). Compounds of interest (serial 3-fold dilution in DMSO from 10 μM to 0.5 nM) or vehicle (1% DMSO) were dispensed into the kinase reaction mixture by Acoustic technology (Echo550; nanoliter range). After incubation at room temperature for 20 minutes, the kinase reaction was initiated by addition of [^33P]-ATP (specific activity 10 μCi/μL) and the mixture was incubated at room temperature for 2 hours. The reaction was then stopped by spotting the reaction mixture on strips of phosphocellulose P81 paper. Following washing, the radioactivity of the P81 paper was measured and kinase activity data were expressed as the percent remaining kinase activity in test samples compared to vehicle reactions. IC50 values and curve fits were obtained using Prism (GraphPad Software).

full-length recombinant human NEK7, sequence (Q8TDX7 whole entry): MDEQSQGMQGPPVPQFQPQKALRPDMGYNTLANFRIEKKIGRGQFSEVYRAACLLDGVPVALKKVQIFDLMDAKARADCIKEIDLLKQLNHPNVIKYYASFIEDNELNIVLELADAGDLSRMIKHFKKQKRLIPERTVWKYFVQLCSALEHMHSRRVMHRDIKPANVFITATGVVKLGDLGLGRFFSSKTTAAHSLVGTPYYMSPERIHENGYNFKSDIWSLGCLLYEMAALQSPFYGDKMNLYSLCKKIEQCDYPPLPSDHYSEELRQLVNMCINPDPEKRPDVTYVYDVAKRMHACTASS

In the case of `CC(C)c1cc(NC(=O)Nc2ccc(-c3cn(C4CC4)c4ncnc(N)c34)n3ccnc23)on1` [Example I-16, 1-(5-(4-amino-7-cyclopropyl-7H-pyrrolo[2,3-d]pyrimidin-5-yl)imidazo[1,2-a]pyridin-8-yl)-3-(3-isopropylisoxazol-5-yl)urea], the IC50 was less than 200 nM. The result for `CN1CCN(Cc2ccc(NC(=O)Nc3ccc(-c4cn(CC(C)(C)O)c5ncnc(N)c45)n4ccnc34)cc2C(F)(F)F)CC1` [Example I-131, 1-(5-(4-amino-7-(2-hydroxy-2-methylpropyl)-7H-pyrrolo[2,3-d]pyrimidin-5-yl)imidazo[1,2-a]pyridin-8-yl)-3-(4-((4-meth-ylpiperazin-1-yl)methyl)-3-(trifluoromethyl)phenyl)urea] reads less than 200 nM.

Take `Nc1ncnc2c1c(-c1ccc(NC(=O)Nc3cc(C4(C(F)(F)F)CCC4)no3)c3nccn13)cn2C1CC1` [Example I-23, 1-(5-(4-amino-7-cyclopropyl-7H-pyrrolo[2,3-d]pyrimidin-5-yl)imidazo[1,2-a]pyridin-8-yl)-3-(3-(1-(trifluoromethyl)-cyclobutyl)isoxazol-5-yl)urea]: the IC50 was less than 200 nM.

With `CC1Cc2c(-c3cn(C4CC4)c4ncnc(N)c34)ccc(NC(=O)Nc3cc(C4(C(F)(F)F)CC4)on3)c2O1` (centres unmarked) [Example I-56, 1-(4-(4-amino-7-cyclopropyl-7H-pyrrolo[2,3-d]pyrimidin-5-yl)-2-methyl-2,3-dihydro-benzofuran-7-yl)-3-(5-(1-(trifluoromethyl)cyclopropyl)-isoxazol-3-yl)urea], the IC50 lay in the range of 500 to 2000 nM. The result for `CN1CCC(Oc2ccc(NC(=O)Nc3ccc(-c4cn(C5CC5)c5ncnc(N)c45)c4c3OC(C)(C)C4)cc2C(F)(F)F)CC1` [Example I-61, 1-(4-(4-amino-7-cyclopropyl-7H-pyrrolo[2,3-d]pyrimidin-5-yl)-2,2-dimethyl-2,3-dihydrobenzofuran-7-yl)-3-(4-((1-methylpiperidin-4-yl)-oxy)-3-(trifluoromethyl)phen-yl)urea] reads greater than 2000 nM; that for `Nc1ncnc2c1c(-c1ccc(NC(=O)Nc3cc(C4(C(F)(F)F)CC4)on3)c3nccn13)cn2C1CC(O)C1` (centres unmarked) [Example I-87, 1-(5-(4-amino-7-(3-hydroxy-cyclobutyl)-7H-pyrrolo[2,3-d]pyrimidin-5-yl)imidazo[1,2-a]pyridin-8-yl)-3-(5-(1-(trifluoromethyl)cyclopropyl)-isoxazol-3-yl)urea], less than 200 nM. On to `CC1Cc2c(-c3cn(C4CC4)c4ncnc(N)c34)ccc(NC(=O)Nc3ccc(CN4CCN(C)CC4)c(C(F)(F)F)c3)c2O1` (centres unmarked) [Example I-57, 1-(4-(4-amino-7-cyclopropyl-7H-pyrrolo[2,3-d]pyrimidin-5-yl)-2-methyl-2,3-dihydro-benzofuran-7-yl)-3-(4-((4-methylpiperazin-1-yl)methyl)-3-(trifluoromethyl)phenyl)urea], for which the IC50 lay within 500 to 2000 nM. For the compound `Nc1ncnc2c1c(-c1ccc(NC(=O)Nc3cc(C4CC4)on3)c3nccn13)cn2C1CC1` [Example I-120, 1-(5-(4-amino-7-cyclopropyl-7H-pyrrolo[2,3-d]pyrimidin-5-yl)imidazo[1,2-a]pyridin-8-yl)-3-(5-cyclopropylisoxazol-3-yl)urea], the IC50 was less than 200 nM. Take `Nc1ncnc2c1c(-c1ccc(NC(=O)Nc3cc(C4(C(F)(F)F)CC4)no3)c3ccccc13)cn2C1CC1` [Example I-1, 1-(4-(4-amino-7-cyclopropyl-7H-pyrrolo[2,3-d]pyrimidin-5-yl)naphthalen-1-yl)-3-(3-(1-(trifluoromethyl)cyclopropyl)-isoxazol-5-yl)urea]: the IC50 is greater than 2000 nM.

In the case of `CC1(c2cc(NC(=O)Nc3ccc(-c4cn(C5CC5)c5ncnc(N)c45)n4ccnc34)on2)CCC1` [Example I-19, 1-(5-(4-amino-7-cyclopropyl-7H-pyrrolo[2,3-d]pyrimidin-5-yl)imidazo[1,2-a]pyridin-8-yl)-3-(3-(1-methylcyclobutyl)-isoxazol-5-yl)urea], the IC50 was in the range of 200 to 500 nM. The result for `CN1CCC(n2cc(-c3ccc(NC(=O)Nc4ccc(CN5CCN(C)CC5)c(C(F)(F)F)c4)c4nccn34)c3c(N)ncnc32)CC1` [Example I-134, 1-(5-(4-amino-7-(1-methyl-piperidin-4-yl)-7H-pyrrolo-[2,3-d]pyrimidin-5-yl)imidazo-[1,2-a]pyridin-8-yl)-3-(4-((4-methylpiperazin-1-yl)methyl)-3-(trifluoromethyl)phenyl)urea] reads 200 to 500 nM; that for `Nc1ncnc2c1c(-c1ccc(NC(=O)Nc3cc(C4(C(F)(F)F)CC4)no3)c3occc13)cn2C1CC1` [Example I-64, 1-(4-(4-amino-7-cyclopropyl-7H-pyrrolo[2,3-d]pyrimidin-5-yl)benzofuran-7-yl)-3-(3-(1-(trifluoromethyl)cyclo-propyl)isoxazol-5-yl)urea], greater than 2000 nM; that for `CC1(c2cc(NC(=O)Nc3ccc(-c4cn(C5CC5)c5ncnc(N)c45)n4ccnc34)on2)CC1` [Example I-18, 1-(5-(4-amino-7-cyclopropyl-7H-pyrrolo[2,3-d]pyrimidin-5-yl)imidazo[1,2-a]pyridin-8-yl)-3-(3-(1-methylcyclo-propyl)isoxazol-5-yl)urea], less than 200 nM. The result for `CN1CCN(Cc2cc(NC(=O)Nc3ccc(-c4cn(C5CC5)c5ncnc(N)c45)n4ccnc34)cc(C(F)(F)F)c2)CC1` [Example I-36, 1-(5-(4-amino-7-cyclopropyl-7H-pyrrolo[2,3-d]pyrimidin-5-yl)imidazo[1,2-a]pyridin-8-yl)-3-(3-((4-methylpiperazin-1-yl)methyl)-5-(trifluorometh-yl)phenyl)urea] reads less than 200 nM; that for `Cc1cc(NC(=O)Nc2ccc(-c3cn(C4CC4)c4ncnc(N)c34)n3ccnc23)on1` [Example I-14, 1-(5-(4-amino-7-cyclopropyl-7H-pyrrolo[2,3-d]pyrimidin-5-yl)imidazo[1,2-a]pyridin-8-yl)-3-(3-methylisoxazol-5-yl)-urea], greater than 2000 nM. Take `Nc1ncnc2c1c(-c1ccc(NC(=O)Nc3cc(C4(C(F)(F)F)CC4)on3)c3nccn13)cn2CCO` [Example I-85, 1-(5-(4-amino-7-(2-hydroxy-ethyl)-7H-pyrrolo[2,3-d]pyr-imidin-5-yl)imidazo[1,2-a]-pyridin-8-yl)-3-(5-(1-(tri-fluoromethyl)cyclopropyl)-isoxazol-3-yl)urea]: the IC50 is less than 200 nM. For `Nc1ncnc2c1c(-c1ccc(NC(=O)Nc3ccc(CN4CCN(CCO)CC4)c(C(F)(F)F)c3)c3nccn13)cn2C1CC1` [Example I-39, 1-(5-(4-amino-7-cyclopropyl-7H-pyrrolo[2,3-d]pyrimidin-5-yl)imidazo[1,2-a]pyridin-8-yl)-3-(4-((4-(2-hydroxyeth-yl)piperazin-1-yl)methyl)-3-(trifluoromethyl)phenyl)urea], the IC50 was less than 200 nM. Under `CC1Cc2c(-c3cn(C4CC4)c4ncnc(N)c34)ccc(NC(=O)Nc3ccc(OC4CCN(C)CC4)c(C(F)(F)F)c3)c2O1` (centres unmarked) [Example I-58, 1-(4-(4-amino-7-cyclopropyl-7H-pyrrolo[2,3-d]pyrimidin-5-yl)-2-methyl-2,3-dihydro-benzofuran-7-yl)-3-(4-((1-methylpiperidin-4-yl)oxy)-3-(trifluoromethyl)phenyl)urea] stands greater than 2000 nM; under `CC1(C)Cc2c(-c3cn(C4CCC4)c4ncnc(N)c34)ccc(NC(=O)Nc3cc(C4(C(F)(F)F)CC4)on3)c2O1` [Example I-122, 1-(4-(4-amino-7-cyclobutyl-7H-pyrrolo[2,3-d]pyrimidin-5-yl)-2,2-dimethyl-2,3-dihydrobenzofuran-7-yl)-3-(5-(1-(trifluoromethyl)cyclo-propyl)isoxazol-3-yl)urea], 500 to 2000 nM.

With `Nc1ncnc2c1c(-c1ccc(NC(=O)Nc3cc(C4(C(F)(F)F)CC4)on3)c3nccn13)cn2C1CCNCC1` [Example I-94, 1-(5-(4-amino-7-(piperidin-4-yl)-7H-pyrrolo[2,3-d]pyr-imidin-5-yl)imidazo[1,2-a]-pyridin-8-yl)-3-(5-(1-(trifluoro-methyl)cyclopropyl)isoxazol-3-yl)urea], the IC50 is less than 200 nM. Under `COCCn1cc(-c2ccc(NC(=O)Nc3cc(C4(C(F)(F)F)CC4)on3)c3nccn23)c2c(N)ncnc21` [Example I-89, 1-(5-(4-amino-7-(2-methoxy-ethyl)-7H-pyrrolo[2,3-d]-pyrimidin-5-yl)imidazo[1,2-a]pyridin-8-yl)-3-(5-(1-(trifluoromethyl)cyclopropyl)-isoxazol-3-yl)urea] stands less than 200 nM. Consider `CCc1cc(NC(=O)Nc2ccc(-c3cn(C4CC4)c4ncnc(N)c34)n3ccnc23)on1` [Example I-15, 1-(5-(4-amino-7-cyclopropyl-7H-pyrrolo[2,3-d]pyrimidin-5-yl)imidazo[1,2-a]pyridin-8-yl)-3-(3-ethylisoxazol-5-yl)-urea], for which the IC50 lay within 200 to 500 nM. Under `CN1CCN(Cc2ccc(NC(=O)Nc3ccc(-c4cn(C5CC5)c5ncnc(N)c45)c4nonc34)cc2C(F)(F)F)CC1` [Example I-78, 1-(7-(4-amino-7-cyclopropyl-7H-pyrrolo[2,3-d]pyrimidin-5-yl)benzo[c][1,2,5]oxadiazol-4-yl)-3-(4-((4-methylpiperazin-1-yl)methyl)-3-(trifluorometh-yl)phenyl)urea] stands less than 200 nM.

The values above are taken from patent US20240158394A1, “NEK7 INHIBITORS” (Halia Therapeutics, Inc., priority 2022, published 2024).
